Experimental data: paper doi:10.1101/2021.09.30.462449v1 (biorxiv, 2021)

Tests used:
Assay in all cases: biochemical
Details in all cases: read-out: % inhibition mean (Lanthascreen)
STK32C (YANK3) = STK32C (YANK3) (Homo sapiens, UniProt Q86UX6)
DDR1 = DDR1 (Homo sapiens, UniProt Q08345)
BMPR2 = BMPR2 (Homo sapiens, UniProt Q13873)
DDR2 T654M = DDR2 T654M (Homo sapiens, UniProt Q16832, T654M)
ADCK3 = ADCK3 (Homo sapiens, UniProt Q8NI60)
RET M918T = RET M918T (Homo sapiens, UniProt P07949, M918T)
TAOK3 (JIK) = TAOK3 (JIK) (Homo sapiens, UniProt Q9H2K8)
ICK = ICK (Homo sapiens, UniProt Q9UPZ9)
STK16 (PKL12) = STK16 (PKL12) (Homo sapiens, UniProt O75716)
MAP3K2 (MEKK2) = MAP3K2 (MEKK2) (Homo sapiens, UniProt Q9Y2U5)
MYLK (MLCK) = MYLK (MLCK) (Homo sapiens, UniProt Q15746)
MAP3K11 (MLK3) = MAP3K11 (MLK3) (Homo sapiens, UniProt Q16584)
MAP3K5 (ASK1) = MAP3K5 (ASK1) (Homo sapiens, UniProt Q99683)
MLK4 = MLK4 (Homo sapiens, UniProt Q5TCX8)
IRAK3 = IRAK3 (Homo sapiens, UniProt Q9Y616)
TEK (TIE2) Y1108F = TEK (TIE2) Y1108F (Homo sapiens, UniProt Q02763, Y1108F)
CLK4 = CLK4 (Homo sapiens, UniProt Q9HAZ1)
CDK9/cyclin K = CDK9/cyclin K (Homo sapiens, UniProt P50750)
ALK L1196M = ALK L1196M (Homo sapiens, UniProt Q9UM73, L1196M)
CDK8/cyclin C = CDK8/cyclin C (Homo sapiens, UniProt P49336)
CASK = CASK (Homo sapiens, UniProt O14936)
KIT V559D T670I = KIT V559D T670I (Homo sapiens, UniProt P10721, T670I/V559D)
STK38 (NDR) = STK38 (NDR) (Homo sapiens, UniProt Q15208)
WNK3 = WNK3 (Homo sapiens, UniProt Q9BYP7)
GAK = GAK (Homo sapiens, UniProt O14976)
AXL R499C = AXL R499C (Homo sapiens, UniProt P30530, R499C)
ACVR2B = ACVR2B (Homo sapiens, UniProt Q13705)
BMPR1B (ALK6) = BMPR1B (ALK6) (Homo sapiens, UniProt O00238)
HUNK = HUNK (Homo sapiens, UniProt P57058)

Sequence of BMPR1B (ALK6) (O00238 whole entry): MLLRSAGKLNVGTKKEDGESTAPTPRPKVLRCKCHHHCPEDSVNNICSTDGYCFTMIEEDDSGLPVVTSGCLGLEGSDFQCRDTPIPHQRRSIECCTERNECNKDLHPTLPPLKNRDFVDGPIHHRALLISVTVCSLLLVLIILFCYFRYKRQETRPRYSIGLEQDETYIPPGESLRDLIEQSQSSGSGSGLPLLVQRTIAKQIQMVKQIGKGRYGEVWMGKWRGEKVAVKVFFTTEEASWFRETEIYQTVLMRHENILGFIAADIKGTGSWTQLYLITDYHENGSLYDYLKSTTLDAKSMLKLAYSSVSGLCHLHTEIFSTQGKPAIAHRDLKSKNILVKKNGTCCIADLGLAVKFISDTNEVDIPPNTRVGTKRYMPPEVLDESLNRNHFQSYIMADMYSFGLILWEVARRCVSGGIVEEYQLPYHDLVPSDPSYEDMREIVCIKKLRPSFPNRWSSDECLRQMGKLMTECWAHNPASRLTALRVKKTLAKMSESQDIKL
Sequence of BMPR2 (Q13873 whole entry): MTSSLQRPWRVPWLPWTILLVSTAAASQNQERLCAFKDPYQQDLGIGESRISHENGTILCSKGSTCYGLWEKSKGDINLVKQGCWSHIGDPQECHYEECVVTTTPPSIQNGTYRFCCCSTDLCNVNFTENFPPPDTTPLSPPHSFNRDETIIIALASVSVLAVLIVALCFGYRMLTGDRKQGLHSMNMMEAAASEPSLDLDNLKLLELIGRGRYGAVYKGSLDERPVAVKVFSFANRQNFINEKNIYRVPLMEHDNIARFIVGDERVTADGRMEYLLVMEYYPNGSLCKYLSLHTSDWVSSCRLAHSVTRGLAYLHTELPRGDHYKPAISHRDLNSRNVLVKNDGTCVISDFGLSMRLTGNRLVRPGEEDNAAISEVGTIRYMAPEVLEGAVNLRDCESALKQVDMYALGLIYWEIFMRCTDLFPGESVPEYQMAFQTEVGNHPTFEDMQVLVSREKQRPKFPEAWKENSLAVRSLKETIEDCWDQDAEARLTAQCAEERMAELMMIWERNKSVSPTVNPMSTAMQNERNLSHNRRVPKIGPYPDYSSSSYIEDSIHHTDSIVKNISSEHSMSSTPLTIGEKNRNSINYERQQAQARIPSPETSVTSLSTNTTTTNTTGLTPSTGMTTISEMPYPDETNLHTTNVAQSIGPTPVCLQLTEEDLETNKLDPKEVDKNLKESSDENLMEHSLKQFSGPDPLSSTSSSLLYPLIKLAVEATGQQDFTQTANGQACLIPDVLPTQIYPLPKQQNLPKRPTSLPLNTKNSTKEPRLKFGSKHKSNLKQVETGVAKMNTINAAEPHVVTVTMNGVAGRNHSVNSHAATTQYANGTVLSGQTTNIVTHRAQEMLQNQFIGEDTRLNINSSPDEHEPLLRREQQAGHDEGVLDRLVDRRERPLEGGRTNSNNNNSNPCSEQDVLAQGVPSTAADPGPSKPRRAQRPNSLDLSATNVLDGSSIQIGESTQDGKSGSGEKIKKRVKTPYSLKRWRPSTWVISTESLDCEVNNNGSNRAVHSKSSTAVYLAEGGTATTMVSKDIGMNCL
Sequence of CLK4 (Q9HAZ1 whole entry): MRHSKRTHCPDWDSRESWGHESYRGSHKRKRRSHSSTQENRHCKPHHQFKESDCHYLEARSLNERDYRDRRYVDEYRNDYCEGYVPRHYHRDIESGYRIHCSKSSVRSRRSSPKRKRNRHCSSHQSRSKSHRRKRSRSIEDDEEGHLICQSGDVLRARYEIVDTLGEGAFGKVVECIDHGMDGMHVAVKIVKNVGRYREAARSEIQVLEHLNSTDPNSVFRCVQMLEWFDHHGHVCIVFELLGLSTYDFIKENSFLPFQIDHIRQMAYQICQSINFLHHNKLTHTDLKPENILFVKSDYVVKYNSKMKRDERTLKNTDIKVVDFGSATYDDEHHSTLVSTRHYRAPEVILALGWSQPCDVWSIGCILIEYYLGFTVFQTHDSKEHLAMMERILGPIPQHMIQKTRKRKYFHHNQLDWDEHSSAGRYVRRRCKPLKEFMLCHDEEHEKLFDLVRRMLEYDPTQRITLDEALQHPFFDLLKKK
Sequence of DDR2 T654M (Q16832 whole entry T654M): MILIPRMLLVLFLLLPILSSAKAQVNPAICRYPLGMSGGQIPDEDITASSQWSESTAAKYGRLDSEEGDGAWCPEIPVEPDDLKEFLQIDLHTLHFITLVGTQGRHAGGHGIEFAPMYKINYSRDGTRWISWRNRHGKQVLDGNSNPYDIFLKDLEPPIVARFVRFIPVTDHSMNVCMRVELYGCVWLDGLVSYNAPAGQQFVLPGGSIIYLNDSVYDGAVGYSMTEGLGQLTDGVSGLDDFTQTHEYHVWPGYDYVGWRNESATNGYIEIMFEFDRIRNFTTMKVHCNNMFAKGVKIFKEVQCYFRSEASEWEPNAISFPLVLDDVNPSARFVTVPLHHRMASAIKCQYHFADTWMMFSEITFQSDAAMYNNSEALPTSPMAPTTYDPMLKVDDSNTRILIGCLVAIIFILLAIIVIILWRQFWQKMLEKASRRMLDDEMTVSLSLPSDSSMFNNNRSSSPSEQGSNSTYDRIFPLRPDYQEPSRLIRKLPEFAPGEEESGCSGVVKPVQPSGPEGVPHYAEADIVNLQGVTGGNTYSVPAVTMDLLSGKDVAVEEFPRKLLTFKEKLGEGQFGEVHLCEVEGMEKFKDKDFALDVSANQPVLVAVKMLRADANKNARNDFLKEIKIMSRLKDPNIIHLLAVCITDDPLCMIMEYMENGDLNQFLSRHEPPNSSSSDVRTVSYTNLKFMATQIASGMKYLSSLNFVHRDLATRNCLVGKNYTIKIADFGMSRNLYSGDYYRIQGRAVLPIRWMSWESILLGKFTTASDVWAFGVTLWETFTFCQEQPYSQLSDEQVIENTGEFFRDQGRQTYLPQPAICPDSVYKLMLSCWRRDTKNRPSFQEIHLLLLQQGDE
Sequence of MAP3K2 (MEKK2) (Q9Y2U5 whole entry): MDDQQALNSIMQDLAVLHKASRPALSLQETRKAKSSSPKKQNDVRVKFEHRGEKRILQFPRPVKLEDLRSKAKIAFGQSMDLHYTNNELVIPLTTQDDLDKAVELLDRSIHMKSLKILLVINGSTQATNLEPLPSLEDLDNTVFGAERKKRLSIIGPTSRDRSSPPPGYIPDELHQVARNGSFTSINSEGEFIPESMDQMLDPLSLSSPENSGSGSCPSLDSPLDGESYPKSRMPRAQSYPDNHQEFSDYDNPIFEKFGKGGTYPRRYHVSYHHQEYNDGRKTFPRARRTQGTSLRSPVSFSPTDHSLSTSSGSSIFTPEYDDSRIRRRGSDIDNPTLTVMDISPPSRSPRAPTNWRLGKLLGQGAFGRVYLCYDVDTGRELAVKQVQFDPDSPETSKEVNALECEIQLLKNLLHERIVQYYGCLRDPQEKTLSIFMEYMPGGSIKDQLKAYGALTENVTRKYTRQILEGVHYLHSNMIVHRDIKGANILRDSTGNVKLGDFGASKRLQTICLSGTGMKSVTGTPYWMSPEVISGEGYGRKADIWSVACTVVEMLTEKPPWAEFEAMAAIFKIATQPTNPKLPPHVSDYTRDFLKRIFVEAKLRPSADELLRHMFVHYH
Sequence of KIT V559D T670I (P10721 whole entry V559D/T670I): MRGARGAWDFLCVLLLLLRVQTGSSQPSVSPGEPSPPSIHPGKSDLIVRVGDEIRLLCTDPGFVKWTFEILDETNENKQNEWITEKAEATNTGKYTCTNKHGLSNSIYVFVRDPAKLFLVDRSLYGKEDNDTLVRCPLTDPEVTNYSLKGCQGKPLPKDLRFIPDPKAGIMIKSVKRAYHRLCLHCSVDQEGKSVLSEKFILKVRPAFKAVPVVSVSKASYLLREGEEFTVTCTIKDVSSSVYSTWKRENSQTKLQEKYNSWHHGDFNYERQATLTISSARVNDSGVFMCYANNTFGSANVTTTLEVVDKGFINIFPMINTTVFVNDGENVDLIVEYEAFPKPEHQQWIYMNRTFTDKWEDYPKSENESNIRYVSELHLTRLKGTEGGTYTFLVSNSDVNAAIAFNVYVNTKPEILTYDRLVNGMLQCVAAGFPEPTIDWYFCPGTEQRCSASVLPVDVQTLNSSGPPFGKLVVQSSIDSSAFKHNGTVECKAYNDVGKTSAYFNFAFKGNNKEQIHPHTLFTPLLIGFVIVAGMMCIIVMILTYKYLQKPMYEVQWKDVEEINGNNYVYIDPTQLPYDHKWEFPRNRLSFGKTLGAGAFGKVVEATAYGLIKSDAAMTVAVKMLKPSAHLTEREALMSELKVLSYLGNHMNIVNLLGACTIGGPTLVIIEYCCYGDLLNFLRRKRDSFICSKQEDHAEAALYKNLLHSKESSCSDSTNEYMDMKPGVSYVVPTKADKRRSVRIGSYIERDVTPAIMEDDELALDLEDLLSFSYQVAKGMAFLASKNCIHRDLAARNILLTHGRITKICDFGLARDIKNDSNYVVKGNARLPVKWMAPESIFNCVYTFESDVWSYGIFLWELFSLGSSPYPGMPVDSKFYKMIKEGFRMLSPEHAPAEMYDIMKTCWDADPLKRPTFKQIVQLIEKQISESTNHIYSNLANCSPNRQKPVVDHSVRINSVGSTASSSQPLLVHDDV
Sequence of IRAK3 (Q9Y616 whole entry): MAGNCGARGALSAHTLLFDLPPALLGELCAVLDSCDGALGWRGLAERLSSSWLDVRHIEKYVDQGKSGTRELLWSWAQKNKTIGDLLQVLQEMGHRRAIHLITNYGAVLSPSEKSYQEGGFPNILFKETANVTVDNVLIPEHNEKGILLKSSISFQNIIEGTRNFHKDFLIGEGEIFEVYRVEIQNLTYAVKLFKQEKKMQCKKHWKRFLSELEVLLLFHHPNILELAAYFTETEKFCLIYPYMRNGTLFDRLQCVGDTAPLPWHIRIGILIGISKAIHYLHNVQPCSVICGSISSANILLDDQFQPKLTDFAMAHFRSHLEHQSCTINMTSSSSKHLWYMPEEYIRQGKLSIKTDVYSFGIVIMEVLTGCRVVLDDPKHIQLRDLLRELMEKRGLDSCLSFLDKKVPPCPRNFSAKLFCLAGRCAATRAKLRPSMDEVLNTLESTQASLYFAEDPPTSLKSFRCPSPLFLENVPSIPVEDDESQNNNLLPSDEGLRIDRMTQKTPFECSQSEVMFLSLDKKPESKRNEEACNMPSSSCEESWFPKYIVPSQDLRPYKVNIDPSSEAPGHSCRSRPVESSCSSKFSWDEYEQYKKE

SMILES: COc1ccc2nc3cc(Cl)ccc3c(Nc3cc(CN4CCCC4)c(O)c(CN4CCCC4)c3)c2n1 [Pyronaridine, 4-[(7-Chloro-2-methoxybenzo[b][1,5]naphthyridin-10-yl)amino]-2,6-bis(1-pyrrolidinylmethyl)phenol phosphate (1:4)]
- inhibition at 1 µM (STK32C (YANK3)): 1%
- inhibition at 1 µM (DDR1): -2%
- inhibition at 1 µM (BMPR2): 8%
- inhibition at 1 µM (DDR2 T654M): -11%
- inhibition at 1 µM (ADCK3): -16%
- inhibition at 1 µM (RET M918T): -3%
- inhibition at 1 µM (TAOK3 (JIK)): -2%
- inhibition at 1 µM (ICK): 0%
- inhibition at 1 µM (STK16 (PKL12)): 5%
- inhibition at 1 µM (MAP3K2 (MEKK2)): 7%
- inhibition at 1 µM (MYLK (MLCK)): 4%
- inhibition at 1 µM (MAP3K11 (MLK3)): 2%
- inhibition at 1 µM (MAP3K5 (ASK1)): -11%
- inhibition at 1 µM (MLK4): 8%
- inhibition at 1 µM (IRAK3): -5%
- inhibition at 1 µM (TEK (TIE2) Y1108F): -2%
- inhibition at 1 µM (CLK4): 6%
- inhibition at 1 µM (CDK9/cyclin K): 5%
- inhibition at 1 µM (ALK L1196M): -3%
- inhibition at 1 µM (CDK8/cyclin C): 3%
- inhibition at 1 µM (CASK): 2%
- inhibition at 1 µM (KIT V559D T670I): -10%
- inhibition at 1 µM (STK38 (NDR)): 2%
- inhibition at 1 µM (WNK3): 7%
- inhibition at 1 µM (GAK): 28%
- inhibition at 1 µM (AXL R499C): 3%
- inhibition at 1 µM (ACVR2B): 8%
- inhibition at 1 µM (BMPR1B (ALK6)): -3%
- inhibition at 1 µM (HUNK): -1%
